Assay results from ChEMBL document CHEMBL1697781, “Assessment of the health effects of chemicals in humans: II. Construction of an adverse effects database for QSAR modeling” (Curr Drug Discov Technol, 2004).

What was measured:
Details in all cases: human; call rule not given here
Hepatotoxicity [1] = test: FDA HLAED, liver enzyme composite activity
Hepatotoxicity [2] = test: FDA HLAED, alkaline phosphatase increase
Hepatotoxicity [3] = test: FDA HLAED, serum glutamic oxaloacetic transaminase (SGOT) increase
Hepatotoxicity [4] = test: FDA HLAED, serum glutamic pyruvic transaminase (SGPT) increase
Hepatotoxicity [5] = test: FDA HLAED, lactate dehydrogenase (LDH) increase
Hepatotoxicity [6] = test: FDA HLAED, gamma-glutamyl transferase (GGT) increase
Wherever GGT Increase - Index Value is given: reference of the scale not given here.
Wherever LDH Increase - Index Value is given: reference of the scale not given here.

CC1(C)S[C@@H]2[C@H](NC(=O)[C@H](NC(=O)N3CCN(S(C)(=O)=O)C3=O)c3ccccc3)C(=O)N2[C@H]1C(=O)O [MEZLOCILLIN]
Composite Activity - Active (Hepatotoxicity [1]; Liver): 0
Composite Activity - Marginal (Hepatotoxicity [1]; Liver): 0
Composite Activity - Score (Hepatotoxicity [1]; Liver): Inactive
Alkaline Phosphatase Increase - Activity Score (Hepatotoxicity [2]): Inactive
Alkaline Phosphatase Increase - Index Value (Hepatotoxicity [2]): 1.9
Alkaline Phosphatase Increase - Number of Reports (Hepatotoxicity [2]): < 4
SGOT Increase - Activity Score (Hepatotoxicity [3]): Inactive
SGOT Increase - Index Value (Hepatotoxicity [3]): 0
SGOT Increase - Number of Reports (Hepatotoxicity [3]): < 4
SGPT Increase - Activity Score (Hepatotoxicity [4]): Inactive
SGPT Increase - Index Value (Hepatotoxicity [4]): 0
SGPT Increase - Number of Reports (Hepatotoxicity [4]): < 4
LDH Increase - Activity Score (Hepatotoxicity [5]): Inactive
LDH Increase - Index Value (Hepatotoxicity [5]): 0
LDH Increase - Number of Reports (Hepatotoxicity [5]): < 4
GGT Increase - Activity Score (Hepatotoxicity [6]): Inactive
GGT Increase - Index Value (Hepatotoxicity [6]): 0
GGT Increase - Number of Reports (Hepatotoxicity [6]): < 4

O=C(O)c1cn(C2CC2)c2cc(N3CCNCC3)c(F)cc2c1=O [CIPROFLOXACIN]
Composite Activity - Active (Hepatotoxicity [1]; Liver): 0
Composite Activity - Marginal (Hepatotoxicity [1]; Liver): 1
Composite Activity - Score (Hepatotoxicity [1]; Liver): Inactive
Alkaline Phosphatase Increase - Activity Score (Hepatotoxicity [2]): Inactive
Alkaline Phosphatase Increase - Index Value (Hepatotoxicity [2]): 2.3
Alkaline Phosphatase Increase - Number of Reports (Hepatotoxicity [2]): >= 4
SGOT Increase - Activity Score (Hepatotoxicity [3]): Marginally Active
SGOT Increase - Index Value (Hepatotoxicity [3]): 3.1
SGOT Increase - Number of Reports (Hepatotoxicity [3]): >= 4
SGPT Increase - Activity Score (Hepatotoxicity [4]): Inactive
SGPT Increase - Index Value (Hepatotoxicity [4]): 2.1
SGPT Increase - Number of Reports (Hepatotoxicity [4]): >= 4
LDH Increase - Activity Score (Hepatotoxicity [5]): Inactive
LDH Increase - Index Value (Hepatotoxicity [5]): 0.9
LDH Increase - Number of Reports (Hepatotoxicity [5]): >= 4
GGT Increase - Activity Score (Hepatotoxicity [6]): Inactive
GGT Increase - Index Value (Hepatotoxicity [6]): 0.8
GGT Increase - Number of Reports (Hepatotoxicity [6]): >= 4

CCCCCCCCCCC(=O)O[C@H]1CC[C@H]2[C@@H]3CCc4cc(O)ccc4[C@H]3CC[C@]12C [ESTRADIOL UNDECYLATE]
Composite Activity - Active (Hepatotoxicity [1]): 0
Composite Activity - Marginal (Hepatotoxicity [1]): 0
Composite Activity - Score (Hepatotoxicity [1]): Inactive
Alkaline Phosphatase Increase - Activity Score (Hepatotoxicity [2]): Inactive
Alkaline Phosphatase Increase - Index Value (Hepatotoxicity [2]): 1.5
Alkaline Phosphatase Increase - Number of Reports (Hepatotoxicity [2]): >= 4
SGOT Increase - Activity Score (Hepatotoxicity [3]): Inactive
SGOT Increase - Index Value (Hepatotoxicity [3]): 2.8
SGOT Increase - Number of Reports (Hepatotoxicity [3]): >= 4
SGPT Increase - Activity Score (Hepatotoxicity [4]): Inactive
SGPT Increase - Index Value (Hepatotoxicity [4]): 2.1
SGPT Increase - Number of Reports (Hepatotoxicity [4]): >= 4
LDH Increase - Activity Score (Hepatotoxicity [5]): Inactive
LDH Increase - Index Value (Hepatotoxicity [5]): 1.2
LDH Increase - Number of Reports (Hepatotoxicity [5]): >= 4
GGT Increase - Activity Score (Hepatotoxicity [6]): Inactive
GGT Increase - Index Value (Hepatotoxicity [6]): 0.3
GGT Increase - Number of Reports (Hepatotoxicity [6]): < 4

Cc1ccc(Cl)c(Nc2ccccc2C(=O)O)c1Cl [MECLOFENAMIC ACID]
Composite Activity - Active (Hepatotoxicity [1]): 0
Composite Activity - Marginal (Hepatotoxicity [1]): 0
Composite Activity - Score (Hepatotoxicity [1]): Inactive
Alkaline Phosphatase Increase - Activity Score (Hepatotoxicity [2]): Inactive
Alkaline Phosphatase Increase - Index Value (Hepatotoxicity [2]): 0
Alkaline Phosphatase Increase - Number of Reports (Hepatotoxicity [2]): < 4
SGOT Increase - Activity Score (Hepatotoxicity [3]): Inactive
SGOT Increase - Index Value (Hepatotoxicity [3]): 0
SGOT Increase - Number of Reports (Hepatotoxicity [3]): < 4
SGPT Increase - Activity Score (Hepatotoxicity [4]): Inactive
SGPT Increase - Index Value (Hepatotoxicity [4]): 0
SGPT Increase - Number of Reports (Hepatotoxicity [4]): < 4
LDH Increase - Activity Score (Hepatotoxicity [5]): Inactive
LDH Increase - Index Value (Hepatotoxicity [5]): 0
LDH Increase - Number of Reports (Hepatotoxicity [5]): < 4
GGT Increase - Activity Score (Hepatotoxicity [6]): Inactive
GGT Increase - Index Value (Hepatotoxicity [6]): 0
GGT Increase - Number of Reports (Hepatotoxicity [6]): < 4

O=C(O)COCCN1CCN(C(c2ccccc2)c2ccc(Cl)cc2)CC1 (configuration not stated) [CETIRIZINE]
Composite Activity - Active (Hepatotoxicity [1]; Liver): 0
Composite Activity - Marginal (Hepatotoxicity [1]; Liver): 0
Composite Activity - Score (Hepatotoxicity [1]; Liver): Inactive
Alkaline Phosphatase Increase - Activity Score (Hepatotoxicity [2]): Inactive
Alkaline Phosphatase Increase - Index Value (Hepatotoxicity [2]): 0
Alkaline Phosphatase Increase - Number of Reports (Hepatotoxicity [2]): < 4
SGOT Increase - Activity Score (Hepatotoxicity [3]): Inactive
SGOT Increase - Index Value (Hepatotoxicity [3]): 1
SGOT Increase - Number of Reports (Hepatotoxicity [3]): < 4
SGPT Increase - Activity Score (Hepatotoxicity [4]): Inactive
SGPT Increase - Index Value (Hepatotoxicity [4]): 1.3
SGPT Increase - Number of Reports (Hepatotoxicity [4]): >= 4
LDH Increase - Activity Score (Hepatotoxicity [5]): Inactive
LDH Increase - Index Value (Hepatotoxicity [5]): 1
LDH Increase - Number of Reports (Hepatotoxicity [5]): < 4
GGT Increase - Activity Score (Hepatotoxicity [6]): Inactive
GGT Increase - Index Value (Hepatotoxicity [6]): 0.6
GGT Increase - Number of Reports (Hepatotoxicity [6]): < 4

Clc1ccc2c(c1)C(c1ccccc1)=NCc1nncn1-2 [ESTAZOLAM]
Composite Activity - Active (Hepatotoxicity [1]): 0
Composite Activity - Marginal (Hepatotoxicity [1]): 0
Composite Activity - Score (Hepatotoxicity [1]): Inactive
Alkaline Phosphatase Increase - Activity Score (Hepatotoxicity [2]): Inactive
Alkaline Phosphatase Increase - Index Value (Hepatotoxicity [2]): 0
Alkaline Phosphatase Increase - Number of Reports (Hepatotoxicity [2]): < 4
SGOT Increase - Activity Score (Hepatotoxicity [3]): Inactive
SGOT Increase - Index Value (Hepatotoxicity [3]): 0.8
SGOT Increase - Number of Reports (Hepatotoxicity [3]): < 4
SGPT Increase - Activity Score (Hepatotoxicity [4]): Inactive
SGPT Increase - Index Value (Hepatotoxicity [4]): 0.8
SGPT Increase - Number of Reports (Hepatotoxicity [4]): < 4
LDH Increase - Activity Score (Hepatotoxicity [5]): Inactive
LDH Increase - Index Value (Hepatotoxicity [5]): 0
LDH Increase - Number of Reports (Hepatotoxicity [5]): < 4
GGT Increase - Activity Score (Hepatotoxicity [6]): Inactive
GGT Increase - Index Value (Hepatotoxicity [6]): 0.8
GGT Increase - Number of Reports (Hepatotoxicity [6]): < 4

CO/N=C(\C(=O)N[C@@H]1C(=O)N2C(C(=O)O)=C(COC(N)=O)CS[C@H]12)c1ccco1 [CEFUROXIME]
Composite Activity - Active (Hepatotoxicity [1]): 0
Composite Activity - Marginal (Hepatotoxicity [1]): 0
Composite Activity - Score (Hepatotoxicity [1]): Inactive
Alkaline Phosphatase Increase - Activity Score (Hepatotoxicity [2]): Inactive
Alkaline Phosphatase Increase - Index Value (Hepatotoxicity [2]): 0
Alkaline Phosphatase Increase - Number of Reports (Hepatotoxicity [2]): < 4
SGOT Increase - Activity Score (Hepatotoxicity [3]): Inactive
SGOT Increase - Index Value (Hepatotoxicity [3]): 0.2
SGOT Increase - Number of Reports (Hepatotoxicity [3]): < 4
SGPT Increase - Activity Score (Hepatotoxicity [4]): Inactive
SGPT Increase - Index Value (Hepatotoxicity [4]): 0
SGPT Increase - Number of Reports (Hepatotoxicity [4]): < 4
LDH Increase - Activity Score (Hepatotoxicity [5]): Inactive
LDH Increase - Index Value (Hepatotoxicity [5]): 0
LDH Increase - Number of Reports (Hepatotoxicity [5]): < 4
GGT Increase - Activity Score (Hepatotoxicity [6]): Inactive
GGT Increase - Index Value (Hepatotoxicity [6]): 0
GGT Increase - Number of Reports (Hepatotoxicity [6]): < 4

COc1ccc(CCN2CCC(Nc3nc4ccccc4n3Cc3ccc(F)cc3)CC2)cc1 [ASTEMIZOLE]
Composite Activity - Active (Hepatotoxicity [1]): 0
Composite Activity - Marginal (Hepatotoxicity [1]): 0
Composite Activity - Score (Hepatotoxicity [1]): Inactive
Alkaline Phosphatase Increase - Activity Score (Hepatotoxicity [2]): Inactive
Alkaline Phosphatase Increase - Index Value (Hepatotoxicity [2]): 1.2
Alkaline Phosphatase Increase - Number of Reports (Hepatotoxicity [2]): >= 4
SGOT Increase - Activity Score (Hepatotoxicity [3]): Inactive
SGOT Increase - Index Value (Hepatotoxicity [3]): 2.6
SGOT Increase - Number of Reports (Hepatotoxicity [3]): >= 4
SGPT Increase - Activity Score (Hepatotoxicity [4]): Inactive
SGPT Increase - Index Value (Hepatotoxicity [4]): 2.8
SGPT Increase - Number of Reports (Hepatotoxicity [4]): >= 4
LDH Increase - Activity Score (Hepatotoxicity [5]): Inactive
LDH Increase - Index Value (Hepatotoxicity [5]): 0.4
LDH Increase - Number of Reports (Hepatotoxicity [5]): < 4
GGT Increase - Activity Score (Hepatotoxicity [6]): Inactive
GGT Increase - Index Value (Hepatotoxicity [6]): 1.4
GGT Increase - Number of Reports (Hepatotoxicity [6]): >= 4

CCCCc1oc2ccccc2c1C(=O)c1cc(I)c(OCCN(CC)CC)c(I)c1 [AMIODARONE]
Composite Activity - Active (Hepatotoxicity [1]; Liver): 0
Composite Activity - Marginal (Hepatotoxicity [1]; Liver): 0
Composite Activity - Score (Hepatotoxicity [1]; Liver): Inactive
Alkaline Phosphatase Increase - Activity Score (Hepatotoxicity [2]): Inactive
Alkaline Phosphatase Increase - Index Value (Hepatotoxicity [2]): 0
Alkaline Phosphatase Increase - Number of Reports (Hepatotoxicity [2]): < 4
SGOT Increase - Activity Score (Hepatotoxicity [3]): Inactive
SGOT Increase - Index Value (Hepatotoxicity [3]): 0
SGOT Increase - Number of Reports (Hepatotoxicity [3]): < 4
SGPT Increase - Activity Score (Hepatotoxicity [4]): Inactive
SGPT Increase - Index Value (Hepatotoxicity [4]): 0
SGPT Increase - Number of Reports (Hepatotoxicity [4]): < 4
LDH Increase - Activity Score (Hepatotoxicity [5]): Inactive
LDH Increase - Index Value (Hepatotoxicity [5]): 0
LDH Increase - Number of Reports (Hepatotoxicity [5]): < 4
GGT Increase - Activity Score (Hepatotoxicity [6]): Inactive
GGT Increase - Index Value (Hepatotoxicity [6]): 0
GGT Increase - Number of Reports (Hepatotoxicity [6]): < 4
